# Reference: patent US20200215142A1, “PHARMACEUTICAL COMPOSITION CONTAINING AVOCADO OIL FRACTION AS ACTIVE INGREDIENT FOR PREVENTION OR TREATMENT OF HEARING LOSS” (DONG KOOK PHARM CO., LTD, priority 2017, published 2020)
# Columns and labels:
# [1] = tested on: hair cells of zebrafish reduced by neomycin; experiment: Hair cells of zebrafish larvae reduced by neomycin (ototoxicity), YO-PRO staining and fluorescence microscope count; format: in vivo; settings: neomycin 1 μM 1 h, then single substance 1 μg/ml 12 h (FIGS. 7, 8)
# Procedure: Particularly, 6 days after fertilization, zebrafish […] placed in 24-well plates and neomycin was added thereto at the concentration of 1 μM. One hour later, neomycin was removed and the isopropanol fraction of avocado oil prepared in Example 1 was added at the concentration of 1 μg/ml. At this time, avocado oil was used as the control and 0.03% (w/v) sea salt solution was used as the untreated control. Twelve hours later, 0.1% YO-PRO (Life Technologies, USA) was added to stain hair cells of the […] for 30 minutes. […] Particularly, 6 days after fertilization, zebrafish […] placed in 24-well plates and neomycin was added thereto at the concentration of 1 μM. One hour later, neomycin was removed and A-E were added at the concentration of 10 μg/ml. At this time, 0.03% (w/v) sea salt solution was used as the control. Twelve hours later, 0.1% YO-PRO (Life Technologies, USA) was added to stain hair cells of the […] for 30 minutes. The stained hair cells were observed using a fluorescence microscope (Olympus 1x70, Olympus, Japan), and the number of the observed hair cells was counted and analyzed.
# [2] = tested on: hair cells of zebrafish reduced by kanamycin; format: in vivo; settings: kanamycin 1 μM vs neomycin 1 μM, 1 h; comparison of Experimental Examples 6 and 7
# Procedure: Particularly, 6 days after fertilization, zebrafish larvaes were placed in 24-well plates and kanamycin was added thereto at the concentration of 1 μM. One hour later, kanamycin was removed and IPG and BG were added at the concentration of 10 μg/ml. At this time, 0.03% (w/v) sea salt solution was used as the control. Twelve hours later, 0.1% YO-PRO (Life Technologies, USA) was added to stain hair cells of the larvaes for 30 minutes. The stained hair cells were observed using a fluorescence microscope (Olympus 1x70, Olympus, Japan), and the number of the observed hair cells was counted and analyzed. As a result, the number of hair cells observed with a fluorescence microscope was shown in FIG. 11 and photomicrographs of the hair cells taken with a fluorescence microscope were shown in FIG. 12.
SMILES,number of hair cells [1],toxicity to hair cells of zebrafish fry (reduction of the number of hair cells) [2]
CC/C=C\C/C=C\C/C=C\CCCCCCCC(=O)O [alpha-linolenic acid],significantly increased,
NC[C@H]1O[C@H](O[C@H]2[C@H](O)[C@@H](O[C@H]3O[C@H](CO)[C@@H](O)[C@H](N)[C@H]3O)[C@H](N)C[C@@H]2N)[C@H](O)[C@@H](O)[C@@H]1O [kanamycin],,more toxic than neomycin
CCCCC/C=C\C/C=C\CCCCCCCC(=O)O [linoleic acid],significantly increased,
CCCCCCCCCCCCCCCCCC(=O)O [stearic acid],significantly increased,
